Laboratory results as given in ChEMBL document CHEMBL1145789, “Benzoylalanine-derived ketoamides carrying vinylbenzyl amino residues: discovery of potent water-soluble calpain inhibitors with oral bioavailability” (J Med Chem, 2003).

Target: T1, Calpain-1 catalytic subunit (Homo sapiens, UniProt P07384)
T1 sequence (P07384 whole entry): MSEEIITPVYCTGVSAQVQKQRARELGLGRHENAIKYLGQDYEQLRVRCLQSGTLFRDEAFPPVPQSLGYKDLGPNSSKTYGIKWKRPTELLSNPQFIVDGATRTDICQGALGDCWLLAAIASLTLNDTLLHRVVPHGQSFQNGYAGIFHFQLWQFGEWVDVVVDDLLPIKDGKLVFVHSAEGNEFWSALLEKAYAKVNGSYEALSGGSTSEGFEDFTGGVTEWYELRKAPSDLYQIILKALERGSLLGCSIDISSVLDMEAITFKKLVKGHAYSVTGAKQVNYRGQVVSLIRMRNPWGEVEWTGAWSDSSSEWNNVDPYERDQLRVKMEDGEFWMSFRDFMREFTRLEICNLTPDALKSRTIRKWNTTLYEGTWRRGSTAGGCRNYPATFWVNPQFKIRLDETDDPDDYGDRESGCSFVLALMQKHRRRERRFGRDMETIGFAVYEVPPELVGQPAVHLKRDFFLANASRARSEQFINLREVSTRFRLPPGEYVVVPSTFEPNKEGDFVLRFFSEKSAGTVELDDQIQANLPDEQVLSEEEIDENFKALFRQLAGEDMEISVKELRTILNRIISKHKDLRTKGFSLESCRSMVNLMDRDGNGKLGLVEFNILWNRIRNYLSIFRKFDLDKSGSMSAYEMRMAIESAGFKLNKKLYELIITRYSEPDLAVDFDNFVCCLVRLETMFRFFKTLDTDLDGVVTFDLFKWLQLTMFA
Assay: Inhibitory activity against human Calpain 1 isolated from erythrocytes
Type: cell-free

**Q.** For O=CC(Cc1ccccc1)NC(=O)c1ccccc1/C=C/c1cccc2ccccc12 (stereo unspecified), which Ki is on record?
**A.** 15 nM
